Data as given in patent publication US12668584B2, “Heterocyclic compounds as kinase inhibitors for therapeutic uses” (National Health Research Institutes, priority 2019, dated 2026).

Experiments:
[1] = biological target: T1, CSF1R kinase (recombinant N-terminal GST-CSF1R, residues L534-C972) (Homo sapiens, UniProt P07333); experiment: CSF1R Kinase-Glo assay; type: biochemical; settings: 40 μM ATP, 30° C. 180 min, read-out: Enzymatic Assay CSF1R enzyme IC50
T1 construct: Recombinant N-terminal GST-CSF1R (CSF1R residues L534-C972) containing the CSFIR kinase domain; made in house; host or cells: Sf9 insect cells
T1 sequence (P07333 534-972): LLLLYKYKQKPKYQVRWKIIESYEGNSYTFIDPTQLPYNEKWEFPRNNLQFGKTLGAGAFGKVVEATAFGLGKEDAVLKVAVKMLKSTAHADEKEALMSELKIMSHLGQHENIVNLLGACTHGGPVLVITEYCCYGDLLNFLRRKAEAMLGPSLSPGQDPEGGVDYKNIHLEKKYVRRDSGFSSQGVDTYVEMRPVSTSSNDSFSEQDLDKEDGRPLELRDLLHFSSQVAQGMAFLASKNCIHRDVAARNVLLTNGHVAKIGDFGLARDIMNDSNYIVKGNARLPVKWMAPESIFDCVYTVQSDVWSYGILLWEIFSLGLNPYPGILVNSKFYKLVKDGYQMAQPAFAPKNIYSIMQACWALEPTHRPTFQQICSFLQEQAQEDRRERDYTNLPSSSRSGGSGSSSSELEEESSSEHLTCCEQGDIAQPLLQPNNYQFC
Protocol: A study was conducted to test certain compounds described in EXAMPLE 1 in inhibiting CSF1R kinase activity.
Activity of CSF1R kinase was determined using a CSF1R Kinase-Glo assay. Recombinant N-terminal GST-CSF1R (CSF1R residues L534-C972) containing the CSFIR kinase domain was expressed in Sf9 insect cells and purified. The kinase assay was carried out in 96-well plates at 30° C. for 180 min with the tested compounds in a final volume of 50 μl including the following components: 25 mM Tris-HCl pH 7.4, 4 mM MnCl2, 10 mM MgCl2, 0.01% BSA, 0.5 mM NA3VO4, 0.02% Triton X-100, 40 μM ATP, 2 mM DTT and 20 μM poly(Glu,Tyr) 4:1 peptide, and 600 ng recombinant GST-CSF1R. Following incubation, 50 μl Kinase-Glo Plus Reagent (Promega, Madison, WI, USA) was added and the mixture was incubated at 25° C. for 20 min. A 70-μL aliquot of each reaction mixture was transferred to a black microtiter plate and luminescence was measured on Wallac Vector 1420 multilabel counter (PerkinElmer, Shelton, CT, USA). Percentage inhibition values were obtained by comparison of reaction rate with the rates in control wells (i.e., in the absence of test compound). IC50 values were calculated from a series of percentage inhibition values determined at a range of test compound concentrations using GraphPad Prism version 6 software (GraphPad, San Diego, CA, USA).

M-NFS-60 cells = experiment: MTS cell viability assay, M-NFS-60; type: cell-based; settings: 72 h, read-out: Cellular Proliferation Assay M-NFS-60 (nM) GI50
Protocol: (§1) Studies were conducted to evaluate […] anticancer activity of certain compounds described in EXAMPLE 1 using 3-(4,5-dimethylthiazol-2-yl)-5-(3-carboxymethoxyphenyl)-2-(4-sulfophenyl)-2H-tetrazolium) (MTS) cell viability assays. Results from these studies are shown in Table 2 below (see columns 3 and 4).
(§2) The cell lines M-NFS-60 (ATCC® CRL-1838™) and BaF3-CSF1R-1600 were obtained from American Type Culture Collection (ATCC, Manassas, VA, USA). The stable BaF3-CSF1R-1600 cell line expresses ETV6-CSF1R fusion protein consisting of N-terminal ETS-variant gene 6 protein (ETV6 residues M1-G337) and CSF1R tyrosine kinase (CSF1R residues L533-C972). The M-NSF-60 and BaF3-CSF1R-1600 cells were cultured in RPMI1640 medium supplemented with 10% fetal bovine serum, 0.05 mM 2-ME, 10 U/ml penicillin, and 10 µg/ml streptomycin at 37° C. and 5% CO2.
(§3) M-NFS-60 and BaF3-CSF1R-1600 cells were seeded in 96-well plates at a density of 10000 cells/100 μl and 8000 cells/100 μl per well, respectively, for 16 h and treated with vehicle or various concentrations of test compounds in medium for 72 h. Viable cells were quantified using the MTS method (Promega, Madison, WI, USA) according to manufacturer's recommended protocol. The results were determined by measuring absorbance at 490 nm using a plate reader (Victor 2). The GI50 value was defined as the amount of compound that caused 50% reduction in cell viability in comparison with DMSO-treated (vehicle) control and was calculated using Prism GraphPad Prism version 6 software (GraphPad).

[2] = tested on: BaF3-CSF1R-1600 cells (express ETV6-CSF1R fusion protein); experiment: MTS cell viability assay, BaF3-CSF1R-1600; type: cell-based; settings: 72 h, read-out: Cellular Proliferation Assay BaF3-CSF1R GI50
Protocol: as §1, §2, §3

Compound | IC50 [1] [nM] | GI50 (M-NFS-60 cells) [nM] | GI50 [2] [nM]
CN(C)c1ccc2c(Oc3ccc(NC(=O)Nc4cccc(F)c4)cc3)ncnc2c1 [Compound 18] | < 20 | 100 to 1000 | 20 to 100
CN(C)c1ccc2c(Oc3ccc(NC(=O)Nc4ccc(Cl)cc4)cc3)ncnc2c1 [Compound 19] | < 20 | 20 to 100 | < 20
COC1CCN(c2ccc3c(Oc4ccc(NC(=O)Nc5ccc(Cl)cc5)cc4)ncnc3c2)CC1 [Compound 20] | < 20 | 20 to 100 | 20 to 100
COc1ccc(NC(=O)Nc2ccc(Oc3ncnc4cc(N(C)C)ccc34)cc2)cc1 [Compound 21] | < 20 | 20 to 100 | 20 to 100
CN(C)C1CCN(c2ccc3c(Oc4ccc(NC(=O)NCc5ccc(C(F)(F)F)nc5)cc4)ncnc3c2)CC1 [Compound 23] | 20 to 100 | 20 to 100 | 20 to 100
COC1CCN(c2ccc3c(Oc4ccc(NC(=O)NCc5ccc(C(F)(F)F)nc5)cc4)ncnc3c2)CC1 [Compound 24] | < 20 | 20 to 100 | 20 to 100
CN(C)c1ccc2c(Oc3ccc(NC(=O)NCc4ccc(C(F)(F)F)nc4)cc3Cl)ncnc2c1 [Compound 25] | 20 to 100 | > 1000 | 100 to 1000
COc1cc2nccc(Oc3ccc(NC(=O)NCc4ccc(C(F)(F)F)nc4)cc3)c2cc1OC [Compound 26] | 20 to 100 | 100 to 1000 | 20 to 100
CN1CCN(c2ccc3c(Oc4ccc(NC(=O)NCc5ccc(C(F)(F)F)nc5)cc4)ncnc3c2)CC1 [Compound 28] | 20 to 100 | 20 to 100 | < 20
O=C(NCc1ccc(C(F)(F)F)nc1)Nc1ccc(Oc2ncnc3cc(N4CCC(O)CC4)ccc23)cc1 [Compound 30, 1-(4-((7-(4-hydroxypiperidin-1-yl)quinazolin-4-yl)oxy)phenyl)-3-((6-(trifluoromethyl)pyridin-3-yl)methyl)urea] | < 20 | 20 to 100 | 20 to 100
O=C(NCc1ccc(C(F)(F)F)nc1)Nc1ccc(Oc2ncnc3cc(Br)ccc23)cc1 [Compound 31, 1-(4-((7-Bromoquinazolin-4-yl)oxy)phenyl)-3-((6-(trifluoromethyl)pyridin-3-yl)methyl)urea] | 100 to 1000 | > 1000 | 100 to 1000
O=C(NCc1ccc(C(F)(F)F)nc1)Nc1ccc(Oc2ncnc3cc(F)ccc23)cc1 [Compound 32] | 20 to 100 | > 1000 | 100 to 1000
CN(C)c1ccc2c(Oc3ccc(NC(=O)NCc4ccc(C(F)(F)F)nc4)c(Cl)c3)ncnc2c1 [Compound 33] | 20 to 100 | 100 to 1000 | 100 to 1000
C[C@@H]1CN(c2ccc3c(Oc4ccc(NC(=O)NCc5ccc(C(F)(F)F)nc5)cc4)ncnc3c2)C[C@H](C)N1 [Compound 34, 1-(4-((7-(3,5-Dimethylpiperazin-1-yl)quinazolin-4-yl)oxy)phenyl)-3-((6-(trifluoromethyl)pyridin-3-yl)methyl)urea] | < 20 | 100 to 1000 | < 20
CN(CCO)c1ccc2c(Oc3ccc(NC(=O)NCc4ccc(C(F)(F)F)nc4)cc3)ncnc2c1 [Compound 40] | 20 to 100 | 100 to 1000 | 20 to 100
COc1cc(Oc2ncnc3cc(N(C)C)ccc23)ccc1NC(=O)NCc1ccc(C(F)(F)F)nc1 [Compound 42] | < 20 | 100 to 1000 | 20 to 100
O=C(NCc1ccc(C(F)(F)F)nc1)Nc1ccc(Oc2ncnc3cc(N[C@@H]4CCCC[C@H]4O)ccc23)cc1 [Compound 43] | 20 to 100 | 100 to 1000 | 100 to 1000

Compound | IC50 [1] [nM] | GI50 (M-NFS-60 cells) [nM] | GI50 [2] [nM]
CN(C)CCN(C)c1ccc2c(Oc3ccc(NC(=O)NCc4ccc(C(F)(F)F)nc4)cc3)ncnc2c1 [Compound 44] | < 20 | 100 to 1000 | 20 to 100
CN(CCCN1CCOCC1)c1ccc2c(Oc3ccc(NC(=O)NCc4ccc(C(F)(F)F)nc4)cc3)ncnc2c1 [Compound 45] | < 20 | 100 to 1000 | 20 to 100
CN(C)c1ccc2c(Oc3ccc(NC(=O)NCc4ccc(S(N)(=O)=O)cc4)cc3)ncnc2c1 [Compound 49] | < 20 | > 1000 | 100 to 1000
CN(C)c1ccc2c(Oc3ccc(NC(=O)NCc4ccccc4)cc3)ncnc2c1 [Compound 51] | < 20 | 20 to 100 | 20 to 100
CN(C)c1ccc2c(Oc3ccc(NC(=O)NCc4ccc(C(F)(F)F)cc4)cc3)ncnc2c1 [Compound 56] | 20 to 100 | 100 to 1000 | 20 to 100
CN(C)c1ccc2c(Oc3ccc(NC(=O)NCc4ccc(OC(F)(F)F)cc4)cc3)ncnc2c1 [Compound 57] | < 20 | 100 to 1000 | 100 to 1000
CN(C)c1ccc2c(Oc3ccc(NC(=O)NCCc4ccccc4)cc3)ncnc2c1 [Compound 58] | < 20 | 100 to 1000 | 20 to 100
COc1ccc(CNC(=O)Nc2ccc(Oc3ncnc4cc(N(C)C)ccc34)cc2)cc1 [Compound 59] | < 20 | 20 to 100 | 20 to 100
CN(C)c1ccc2c(Oc3ccc(NC(=O)NCc4ccco4)cc3)ncnc2c1 [Compound 63] | 20 to 100 | 100 to 1000 | 100 to 1000
Cc1ccc(CNC(=O)Nc2ccc(Oc3ncnc4cc(N(C)C)ccc34)cc2)cn1 [Compound 65, 1-(4-((7-(dimethylamino)quinazolin-4-yl)oxy)phenyl)-3-((6-methylpyridin-3-yl)methyl)urea] | < 20 | 20 to 100 | 20 to 100
CN(C)c1ccc2c(Oc3ccc4c(cnn4C(=O)NCc4ccc(C(F)(F)F)nc4)c3)ncnc2c1 [Compound 68] | 20 to 100 | 100 to 1000 | 20 to 100
C[C@@H]1CN(c2ccc3c(Oc4ccc(NC(=O)NCc5ccc(C(F)(F)F)nc5)cc4)ncnc3c2)C[C@H](C)N1C [Compound 97] | 20 to 100 | 20 to 100 | 20 to 100
O=C(NCc1ccc(C(F)(F)F)nc1)Nc1ccc(Oc2ncnc3cc(N4CCN(C5COC5)CC4)ccc23)cc1 [Compound 98] | < 20 | 20 to 100 | < 20
O=C(NCc1ccc(C(F)(F)F)nc1)Nc1ccc(Oc2ncnc3cc(N4CCOCC4)ccc23)cc1 [Compound 99] | < 20 | 20 to 100 | 20 to 100
CCN1CCN(c2ccc3c(Oc4ccc(NC(=O)NCc5ccc(C(F)(F)F)nc5)cc4)ncnc3c2)CC1 [Compound 100] | < 20 | 20 to 100 | 20 to 100
CN(C)c1ccc2c(Oc3ccc(NC(=O)NCc4nccs4)cc3)ncnc2c1 [Compound 101] | 20 to 100 | 100 to 1000 | 100 to 1000
CN(C)c1ccc2c(Oc3ccc4nc(NCc5ccc(C(F)(F)F)nc5)oc4c3)ncnc2c1 [Compound 102] | 20 to 100 | > 1000 | 100 to 1000
